Experimental data published in a melting point compilation (Tetko et al.; mined from patent text by program, amines drawn as free bases though some values may be those of a salt).

| SMILES | melting point [°C] |
| --- | --- |
| CCOC(=O)c1c(-c2ccncc2)[nH]c(-c2ccccc2)c1C | 179 to 181 |
| CCOc1ccccc1C=[N+]([O-])C1CCCCC1 | 124 |
| O=C(NC1CN2CCC1CC2)c1ccccc1Cc1ccccc1 (racemic) | 187 to 188 |
| Nc1ccc(C(=O)N2CCCCc3sc(Cl)cc32)cc1 | 146 to 149 |
| CCCN1C(=O)CC(=O)N(CCC)C1=O | 77 to 80 |
| Nc1c(I)cc(Cl)cc1I | 127 to 129 |
| COC(=O)c1ccc(C(F)(F)F)nc1S(=O)(=O)NC(C)(C)C | 76 to 83 |
| CCOc1ccc2nc3cc(OC)c(=O)c(Cl)c-3sc2c1 | 236 to 239 |
| Cc1nc2c3c(c(C(=O)N4CC(O)C4)cc2n1C)CCC1(Cc2ccccc2C1)N3 | 171 to 172 |
| O=C(O)COc1ccc(SCc2cc(-c3ccc(C(F)(F)F)cc3)on2)c2c1CCCO2 | 112 to 113 |
| Cn1cc(Oc2cc(Cl)cc(Cl)c2)c(=O)c(-c2cccc(C(F)(F)F)c2)c1 | 128 to 130 |
| N#Cc1c[nH]cc1-c1ccccc1Cl | 138 to 139 |
| Nc1nc(N)c2c(ccc3[nH]c(-c4ccccc4)cc32)n1 | 322 to 323 |
| COC(=O)c1nc(NC(=O)c2ccccn2)ccc1Oc1nc(OC)cc(OC)n1 | 146 to 150 |
| CC(C)(C)n1ncc(Cl)c(NCCN2CCN(c3cccc4c3OCCO4)CC2)c1=O | 177 to 178 |
| C#CCn1c(C)c(C)c2cnnc(OCc3ccccc3)c21 | 116 to 117 |
| OCCCc1oc(-n2cccn2)nc1-c1ccc(Cl)cc1 | 75 to 76 |
| COC1CC=C(c2ccc(C(C)=O)cc2)CC1 (stereo not given) | 40 to 42 |
| COC(=O)c1ccccc1Nc1cccc(C(C)N(O)C(C)=O)c1Cl (stereo not given) | 171 to 172 |
| CCOc1cc2c3c(cccc3c1)C(=O)N(O)C2=O | 224 to 227 |
| O=C(NC(CO)CO)c1cccc(-c2ccc3c(c2)C(c2cc(Cl)ccc2Cl)CC3)c1 (stereo not given) | 166 |
| CCCCCCC#Cc1ccc(C=C(C(=O)O)C(=O)O)s1 | 106 |
| O=C1C=CCC(CCc2ccccc2)(c2ccccc2)O1 (stereo not given) | 130 |
| O=C(CCCCl)Nc1ccnn1-c1c(Cl)cc(C(F)(F)F)cc1Cl | 103 to 104 |
| O=C(Nc1ccc(CN2CCCCC2)cc1)C1=Cc2cc(-c3ccc(F)cc3)ccc2CC1 | 175 to 176 |

| SMILES | melting point [°C] |
| --- | --- |
| CCCc1cc(Cl)cc2nc(Cc3ccc(OC)c(OC4CCCC4)c3)oc12 | 54 to 55 |
| CC(=O)c1ccc2c(c1)C(C(=O)Nc1cccc(C(=O)Nc3ccccc3)c1)C(=O)N2CC(F)(F)F (stereo not given) | 197 to 203 |
| CC(=O)c1ccc(CNC(=O)OC(C)(C)C)cc1 | 73 to 75 |
| ClC1c2ccccc2-c2ccccc21 | 87 to 89 |
| Cc1ccc(Cc2cnc(NCCSCc3cc(CN(C)C)ccn3)[nH]c2=O)cn1 | 128 to 130 |
| NC(=O)Cc1cc(Cl)ccc1[N+](=O)[O-] | 115 to 116 |
| CCCCc1ccc(NC(=O)c2ccccc2C(c2ccc(O)cc2)c2ccc(O)cc2)cc1 | 119 to 121 |
| COc1cc(Cl)nnc1NS(=O)(=O)c1cccc(Cl)c1Cl | 226 to 227 |
| C[N+]([O-])=C(Cn1cncn1)c1ccc(Cl)cc1 | 119 to 121 |
| CCOC(=O)C1Cc2ccc(Cl)cc2NC1=O (stereo not given) | 182 to 184 |
| O=C(CC1COC1)N[C@H]1CC[C@H](CCN2CCC(c3cccc4c3CCO4)CC2)CC1 | 197 |
| COC(=O)[C@H]1C[C@H](n2c(Br)c(-c3cccc(OCc4ccccc4)c3)c3c(N)ncnc32)C1 | 124 to 125 |
| COC(=O)c1ccccc1C(=O)Nc1cc(C(F)(F)C(F)(F)F)on1 | 97 to 100 |
| O=C1CCCc2cc(OCCOc3ccccc3)ccc21 | 109 to 113 |
| O=C(NCCCN1CCN(Cc2ccc(Cl)cc2)CC1)Nc1ccccc1 | 135 to 137 |
| O=C1Cc2c(OCCN3CCc4ccccc4C3)ccc(F)c2N1 | 230 to 235 |
| CS(=O)(=O)c1ccc2c(C=C[N+](=O)[O-])c[nH]c2c1 | > 250 |
| COc1ccc(-c2cc(Cl)c3cc(O)c(Br)cc3c2)cc1 | 138 to 139 |
| CC1(C)Nc2ncc(-c3ccc(C(=O)N4CCC[C@H]4CN4CCCC4)cc3)cc2N(Cc2cc(F)ccc2F)C1=O | 171 to 172 |
| COc1ccccc1-c1ccc(C(=O)N2Cc3cccn3Cc3ccccc32)cc1 | 250 to 253 |
| O=C(c1cccc(O)c1)c1cccc(Cl)c1 | 104 |
| CCCCOC(=O)c1[nH]c(=O)c2cc(OC(C)C)ccc2c1O | 118 to 123 |
| COc1ccc2cc(-c3nc(-c4ccc(C)cc4)no3)c(=O)oc2c1 | 227 |
| O=C(NC(Cc1ccccc1)C(=O)O)OCc1cc2cc(-c3cncnc3)ccc2o1 (stereo not given) | 192 |
| COc1ccc(NC(=O)N(C)C)cc1 | 126 to 130 |

| SMILES | melting point [°C] |
| --- | --- |
| CC(=O)c1cc(NC(=O)CCCC(=O)Nc2cc(C(C)=O)cc(C(C)=O)c2)cc(C(C)=O)c1 | 200 to 203 |
| O=S(Cc1c(F)cccc1Cl)c1nc2cnccc2[nH]1 (stereo not given) | 180 to 183 |
| O=C(O)c1ccc(OCC2CN(C(=O)c3ccccc3)C(=O)O2)cc1 (stereo not given) | 219 to 221 |
| COc1cc(OC)c(-c2cc3ccccc3s2)cc1/C=C/C(=O)c1ccc(C(=O)NCC(F)(F)F)cc1 | 215 to 217 |
| COC(=O)Cc1cc(=O)[nH]c2cc(Br)ccc12 | 208 to 210 |
| CC1C(=O)N(c2ccccc2)c2ccccc21 (stereo not given) | 77 to 78 |
| CS(=O)(=O)NC(=O)CCCCCCCCCCCNC(=O)NC12CC3CC(CC(C3)C1)C2 | 103 |
| CNS(=O)(=O)OCCOc1ccc(Cl)cc1 | 101 to 104 |
| N=C(Nc1ccccc1)N1CCC1 | 116 to 119 |
| CCOC(=O)CC(=O)c1cc(F)c(Br)c(F)c1F | 51 to 59 |
| Oc1ccc2nc(-c3cccc4c(O)cccc34)oc2c1 | 240 to 242 |
| c1cncc(CCCN2CCc3[nH]c4ccccc4c3C2)c1 | 223 to 225 |
| CCOC(=O)/C=C/c1c(-c2ccccc2)c2c3ccccc3cnn2c1C(C)C | 158 to 159 |
| Cn1cc(-c2ccnc(Cl)n2)c(-c2ccc(Cl)cc2Cl)n1 | 165 to 166 |
| CSC(C#N)=C1CCN(c2ccc(N3C[C@H](CNC(C)=O)OC3=O)cc2F)CC1 | 205 to 207 |
| Oc1c(CCCBr)ccc2ccccc12 | 53 to 55 |
| COc1cc(-n2cccn2)ccc1-n1cc(OC)c(=O)c(-c2ccnn2-c2ccccc2)n1 | 133 to 135 |
| CS(=O)CCNC(=O)c1cc2cc(S(N)(=O)=O)sc2s1 (stereo not given) | 242 to 243 |
| COc1ccc2c(c1)CCC2n1cc[nH]c1=S (stereo not given) | 195 to 196 |
| CCC(O)=C1SC(=S)N(c2ccccc2)C1=O | 105 to 111 |
| CCC1(C)NC(=O)C(c2c(C)cc(C)cc2C)C1=O (stereo not given) | 137 to 142 |
| COC1=C(OC)C(=O)C(CCCCCCCCCCCCCCCC(=O)O)=C(C)C1=O | 70 to 71 |
| CCCCNC(=O)NS(=O)(=O)c1sccc1C | 144 to 146 |
| COC(=O)c1c(C(=O)OC)c2n(c1C)Cc1ccccc1C2 | 152 to 154 |
| N#Cc1cnc2c(sc3ccc([N+](=O)[O-])cc32)c1O | > 305 |
